Data on 26 compounds can be found in patent US9023851B2 (Merck Patent GmbH, priority 2010, dated 2015).

Molecules are shown by their SMILES.

What all share (type): biochemical
In one test the target is T1, Syk (Homo sapiens, UniProt P43405).
T1 construct: purchased BPS Bioscience, CA, USA
The experiment in a line: Syk enzyme assay (flash plate / Caliper mobility shift). As to the method: The kinase assay is performed either as 384-well Flashplate assay (for e.g. Topcount measurement) or as 384-well Image-Flashplate assay (for LEADseeker measurement).
2.5 nM SYK, 400 nM Biotin-Aha-Aha-[…] and 10 μM ATP (spiked with 0.3 μCi 33P-ATP/well) are incubated in a total volume of 50 μl (60 mM Hepes, 10 mM MgCl2, 1.2 mM Dithiothreitol, 0.02% Brij35, 0.1% BSA, pH 7.5) with or without test compound for 1 hours at 30° C. The reaction is stopped with 25 μl 200 mM EDTA. After 30 Min at 30° C. the liquid is removed and each well washed thrice with 100 μl 0.9% sodium chloride solution. Non-specific reaction is determined in presence of 0.1 μM Staurosporine. Radioactivity is measured with Topcount (when using Flashplates) or with LEADseeker (when using Image-Flashplates) respectively. Results (e.g. IC50-values) are calculated with program tools provided by the IT-department (e.g. Symyx Assay Explorer, Genedata Screener).
(§1) Enzymatic Assays Using the Caliper LifeSciences Technology
(§2) The assays described here are performed on the Caliper Life Sciences LC3000 system This technology provides data on enzyme activity via measurement of the relative amounts of phosphorylated or unphosphorylated fluorescently labelled substrate peptide at the end of an enzymatic reaction. These different states of peptide are resolved by applying a potential difference across the sample. The presence of the charged phosphate group on the product (as opposed to the substrate) causes a different peptide mobility between the two peptides. This is visualized by excitation of the fluorescent label on the substrate and product peptides and represented as peaks within the analysis software.
(§3) In order to measure inhibitor activity of kinase inhibitors on this technology, a TTP Mosquito liquid handling instrument is used to place 0.25 ul of the appropriate concentration of inhibitor in 100% DMSO (for a dose response curve calculation) into each well of a 384-well plate. To this reaction components are added to a final volume of 25 ul. The table below indicates the sequences and concentrations for the assays described in this report. Standard components are 1 mM DTT (Sigma, D0632), 1 mM MgCl2 (Sigma, M1028), 100 mM HEPES pH 7.5 (Calbiochem, 391338), 0.015% Brij-35 (Sigma, B4184).
(§4) The reaction is incubated for 90 min at 25 C, and then stopped by the addition of 70 ul of Stop buffer (100 mM HEPES pH 7.5, 0.015% Brij-35, 10 mM EDTA (Sigma, E7889)).
(§5) The plate is read on a Caliper LC 3000 in an Off-Chip mobility shift assay format, on a 12-sipper chip. Unphosphorylated substrate and phosphorylated product peptide resolve as separate peaks allowing direct measurement of percentage of conversion of substrate to product. The percent conversion can be plotted against concentration of inhibitor to produce a sigmoidal dose response curve, from which an IC50 can be calculated using GeneData Condoseo or a similar product. Cellular activity assays

In another test the target is T2, KDR (Homo sapiens, UniProt P35968).
T2 construct: purchased BPS Bioscience, CA, USA
Description: KDR enzymatic assay (Caliper LifeSciences technology). As to the method:
as §1, §2, §3, §4, §5

Another test deals with T3, ZAP-70 (Homo sapiens, UniProt P43403).
T3 construct: purchased BPS Bioscience, CA, USA
T3 sequence (P43403 1-619): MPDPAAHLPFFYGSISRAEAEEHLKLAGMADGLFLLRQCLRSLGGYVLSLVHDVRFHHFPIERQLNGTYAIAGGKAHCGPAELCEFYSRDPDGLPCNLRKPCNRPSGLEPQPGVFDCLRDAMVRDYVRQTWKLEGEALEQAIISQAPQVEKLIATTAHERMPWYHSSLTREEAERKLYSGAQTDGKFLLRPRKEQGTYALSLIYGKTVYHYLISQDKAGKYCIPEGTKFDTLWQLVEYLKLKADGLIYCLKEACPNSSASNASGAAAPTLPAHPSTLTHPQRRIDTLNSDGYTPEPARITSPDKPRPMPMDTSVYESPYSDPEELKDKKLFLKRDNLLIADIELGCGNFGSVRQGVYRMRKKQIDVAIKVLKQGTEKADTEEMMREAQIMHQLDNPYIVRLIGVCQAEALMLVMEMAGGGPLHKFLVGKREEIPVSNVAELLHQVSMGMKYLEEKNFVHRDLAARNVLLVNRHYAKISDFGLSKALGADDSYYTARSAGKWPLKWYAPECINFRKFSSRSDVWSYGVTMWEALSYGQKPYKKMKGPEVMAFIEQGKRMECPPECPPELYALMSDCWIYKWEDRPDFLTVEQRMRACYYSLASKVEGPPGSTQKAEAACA
Description: Zap70 enzymatic assay (Caliper LifeSciences technology). As to the method: as §1, §2, §3, §4, §5

T2 sequence (P35968 20-1356): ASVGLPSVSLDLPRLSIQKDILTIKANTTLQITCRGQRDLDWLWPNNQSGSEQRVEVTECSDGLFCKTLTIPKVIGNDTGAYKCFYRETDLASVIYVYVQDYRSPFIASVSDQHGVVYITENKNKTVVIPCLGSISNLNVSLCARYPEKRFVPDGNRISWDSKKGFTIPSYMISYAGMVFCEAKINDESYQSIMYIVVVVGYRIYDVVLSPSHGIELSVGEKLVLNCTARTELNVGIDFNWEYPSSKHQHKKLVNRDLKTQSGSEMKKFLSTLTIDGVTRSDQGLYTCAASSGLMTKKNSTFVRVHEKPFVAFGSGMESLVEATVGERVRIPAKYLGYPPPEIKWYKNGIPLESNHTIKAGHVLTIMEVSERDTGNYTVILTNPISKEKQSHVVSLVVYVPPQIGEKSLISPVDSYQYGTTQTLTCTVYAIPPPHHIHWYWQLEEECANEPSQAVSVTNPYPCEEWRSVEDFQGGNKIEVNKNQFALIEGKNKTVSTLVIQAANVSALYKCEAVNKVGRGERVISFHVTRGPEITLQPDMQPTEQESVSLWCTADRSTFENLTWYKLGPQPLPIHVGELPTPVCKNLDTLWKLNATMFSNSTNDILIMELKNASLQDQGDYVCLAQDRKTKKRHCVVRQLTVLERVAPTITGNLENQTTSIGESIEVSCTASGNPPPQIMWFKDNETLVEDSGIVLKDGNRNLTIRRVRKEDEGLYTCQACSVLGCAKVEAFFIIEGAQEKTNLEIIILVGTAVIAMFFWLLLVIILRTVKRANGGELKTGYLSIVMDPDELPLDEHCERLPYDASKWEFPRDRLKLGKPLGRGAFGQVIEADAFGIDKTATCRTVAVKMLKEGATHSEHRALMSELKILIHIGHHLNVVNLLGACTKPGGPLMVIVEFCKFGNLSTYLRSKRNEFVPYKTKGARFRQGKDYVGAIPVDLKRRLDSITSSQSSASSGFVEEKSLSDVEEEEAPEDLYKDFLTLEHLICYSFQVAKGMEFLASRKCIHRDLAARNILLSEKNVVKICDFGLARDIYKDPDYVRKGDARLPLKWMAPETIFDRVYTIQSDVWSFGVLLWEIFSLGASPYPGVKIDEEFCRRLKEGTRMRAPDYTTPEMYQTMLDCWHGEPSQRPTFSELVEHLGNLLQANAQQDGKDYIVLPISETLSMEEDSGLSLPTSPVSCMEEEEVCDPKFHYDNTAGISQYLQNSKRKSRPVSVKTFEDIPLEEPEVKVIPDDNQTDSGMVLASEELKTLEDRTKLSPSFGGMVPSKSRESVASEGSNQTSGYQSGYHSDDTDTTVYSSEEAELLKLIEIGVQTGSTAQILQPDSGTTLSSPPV

Turning to `COCCCNc1nccn2nc(Nc3ccccc3)nc12` [Example C53, N^8-(3-Methoxy-propyl)-N^2-phenyl-[1,2,4]triazolo[1,5-a]pyrazine-2,8-diamine], the IC50 at Syk and at KDR was 3 to 50 µM each time. With `NCCNc1nccn2nc(Nc3ccccc3)nc12` [Example C49, N^8-(2-Amino-ethyl)-N^2-phenyl-[1,2,4]triazolo[1,5-a]pyrazine-2,8-diamine], the concentration for half-maximal inhibition (IC50) at Syk and against KDR was 3 to 50 µM in each case.

Turning to `c1ccc(Nc2nc3c(-c4ccccc4)nccn3n2)cc1` [Example C10, Phenyl-(8-phenyl-[1,2,4]triazolo[1,5-a]pyrazin-2-yl)-amine], the IC50 at Syk and at KDR was 0.3 to 3 µM in each case.

Turning to `FC(F)(F)c1cccc(Nc2nc3c(Nc4ccccc4)nccn3n2)c1` [Example C88, N^8-Phenyl-N^2-(3-trifluoromethyl-phenyl)-[1,2,4]triazolo[1,5-a]pyrazine-2,8-diamine], at ZAP-70, the IC50 is 3 to 50 µM. Turning to `Cc1cc(C)cc(Nc2nccn3nc(Nc4cccc(C(F)(F)F)c4)nc23)c1` [Example C86, N^8-(3,5-Dimethyl-phenyl)-N^2-(3-trifluoromethyl-phenyl)-[1,2,4]triazolo[1,5-a]pyrazine-2,8-diamine], at ZAP-70, the half-inhibitory concentration (IC50) was 3 to 50 µM. As for `O=C1Nc2cc(Nc3nc4c(Cl)nccn4n3)ccc2OC1(F)F` [Example B7, 6-(8-Chloro-[1,2,4]triazolo[1,5-a]pyrazin-2-ylamino)-2,2-difluoro-4H-benzo[1,4]oxazin-3-one], on Syk, the IC50 is 0.3 to 3 µM. As to `COc1cc(Nc2nc3c(NC4CCCCC4N)nccn3n2)cc(OC)c1` (stereo not drawn) [Example C54, N^8-(2-Amino-cyclohexyl)-N^2-(3,5-dimethoxy-phenyl)-[1,2,4]triazolo[1,5-a]pyrazine-2,8-diamine], the half-inhibitory concentration (IC50) at Syk fell in the range of 3 to 50 µM. For the compound `Cc1cc(C)cc(Nc2nc3c(NC4CCCCC4N)nccn3n2)c1` (stereo not drawn) [Example C56, N^8-(2-Amino-cyclohexyl)-N^2-(3,5-dimethyl-phenyl)-[1,2,4]triazolo[1,5-a]pyrazine-2,8-diamine], the IC50 at Syk and at KDR was 3 to 50 µM in each case. In the case of `COCCCNc1nccn2nc(Nc3cc(C)cc(C)c3)nc12` [Example C37, N^2-(3,5-Dimethyl-phenyl)-N^8-(3-methoxy-propyl)-[1,2,4]triazolo[1,5-a]pyrazine-2,8-diamine], the IC50 on Syk and on KDR was 3 to 50 µM throughout. As to `Cc1cccc(Nc2nc3c(Nc4ccc5c(c4)NC(=O)C(F)(F)O5)nccn3n2)c1` [Example C71, 2,2-Difluoro-6-(2-m-tolylamino-[1,2,4]triazolo[1,5-a]pyrazin-8-ylamino)-4H-benzo[1,4]oxazin-3-one], the half-inhibitory concentration (IC50) on Syk was 3 to 50 µM. As to `COc1cc(OC)cc(-c2nccn3nc(Nc4cc(C)cc(C)c4)nc23)c1` [Example C15, [8-(3,5-Dimethoxy-phenyl)-[1,2,4]triazolo[1,5-a]pyrazin-2-yl]-(3,5-dimethyl-phenyl)-amine], the half-maximal inhibitory concentration (IC50) on Syk is 0.3 to 3 µM; at KDR, 3 to 50 µM. For `COc1cc(Nc2nc3c(-c4cnc5ccccc5c4)nccn3n2)cc(OC)c1` [Example C260, (3,5-Dimethoxy-phenyl)-(8-quinolin-3-yl-[1,2,4]triazolo[1,5-a]pyrazin-2-yl)-amine], the IC50 on Syk was under 0.3 µM. With `Cc1cccc(Nc2nc3c(NC4CCCCC4N)nccn3n2)c1` (stereo not drawn) [Example C57, N^8-(2-Amino-cyclohexyl)-N^2-m-tolyl-[1,2,4]triazolo[1,5-a]pyrazine-2,8-diamine], the IC50 on Syk and on KDR was 3 to 50 µM each time. Take `Cn1ccnc1Sc1ccc(Nc2nccn3nc(Nc4cccc(C(F)(F)F)c4)nc23)cc1Cl` [Example C68, N^8-[3-Chloro-4-(1-methyl-1H-imidazol-2-ylsulfanyl)-phenyl]-N^2-(3-trifluoromethyl-phenyl)-[1,2,4]triazolo[1,5-a]pyrazine-2,8-diamine]: at Syk, the IC50 fell in the range of 3 to 50 µM. Still for that read-out and setting: then `COc1cc(Nc2nc3c(-c4cc(OC)cc(OC)c4)nccn3n2)cc(OC)c1` [Example C16, (3,5-Dimethoxy-phenyl)-[8-(3,5-dimethoxy-phenyl)-[1,2,4]triazolo[1,5-a]pyrazin-2-yl]-amine], with under 0.3 µM.

In the case of `COc1ccc(Nc2nc3c(-c4cccc(CN)c4)nccn3n2)cn1` [Example C254, [8-(3-Aminomethyl-phenyl)-[1,2,4]triazolo[1,5-a]pyrazin-2-yl]-(6-methoxy-pyridin-3-yl)-amine], the half-inhibitory concentration (IC50) at Syk was 0.3 to 3 µM. For the compound `COc1cc(OC)cc(-c2nccn3nc(Nc4cccc(C)c4)nc23)c1` [Example C17, [8-(3,5-Dimethoxy-phenyl)-[1,2,4]triazolo[1,5-a]pyrazin-2-yl]-m-tolyl-amine], the IC50 on Syk was in the range of 0.3 to 3 µM; against KDR it was 3 to 50 µM.

In the case of `FC(F)(F)c1cccc(Nc2nc3c(-c4ccccc4)nccn3n2)c1` [Example C9, (8-Phenyl-[1,2,4]triazolo[1,5-a]pyrazin-2-yl)-(3-trifluoromethyl-phenyl)-amine], the IC50 at Syk fell in the range of 0.3 to 3 µM; at KDR it was 3 to 50 µM. Regarding `Cc1c(N)cccc1-c1nccn2nc(Nc3ccc(N4CCOCC4)cc3)nc12` [Example C293, [8-(3-Amino-2-methyl-phenyl)-[1,2,4]triazolo[1,5-a]pyrazin-2-yl]-(4-morpholin-4-yl-phenyl)-amine], the IC50 on Syk fell in the range of 0.3 to 3 µM. In the case of `Cc1cccc(Nc2nc3c(NCCN)nccn3n2)c1` [Example C45, N^8-(2-Amino-ethyl)-N^2-m-tolyl-[1,2,4]triazolo[1,5-a]pyrazine-2,8-diamine], the IC50 on Syk and at KDR was 3 to 50 µM in each case. With `COc1ccc(Nc2nc3c(-c4cnc5ccccc5c4)nccn3n2)cn1` [Example C262, (6-Methoxy-pyridin-3-yl)-(8-quinolin-3-yl-[1,2,4]triazolo[1,5-a]pyrazin-2-yl)-amine], the IC50 at Syk was 0.3 to 3 µM. In the case of `FC(F)(F)c1cccc(Nc2nc3c(-c4ccc(N5CCOCC5)cc4)nccn3n2)c1` [Example C12, [8-(4-Morpholin-4-yl-phenyl)-[1,2,4]triazolo[1,5-a]pyrazin-2-yl]-(3-trifluoromethyl-phenyl)-amine], on Syk, the IC50 lay within 3 to 50 µM. `Clc1nccn2nc(Nc3ccc4cnn(Cc5ccccc5)c4c3)nc12` [Example B9, (1-Benzyl-1H-indazol-6-yl)-(8-chloro-[1,2,4]triazolo[1,5-a]pyrazin-2-yl)-amine]: the IC50 on Syk lay in the range of 3 to 50 µM. Consider `COc1ccc(Nc2nc3c(-c4cccc(NS(C)(=O)=O)c4)nccn3n2)cn1` [Example C274, N-{3-[2-(6-Methoxy-pyridin-3-ylamino)-[1,2,4]triazolo[1,5-a]pyrazin-8-yl]-phenyl}-methanesulfonamide], for which the IC50 on Syk was 0.3 to 3 µM.

Consider `Cc1cccc(Nc2nc3c(Nc4cccc(C(F)(F)F)c4)nccn3n2)c1` [Example C73, N^2-m-Tolyl-N^8-(3-trifluoromethyl-phenyl)-[1,2,4]triazolo[1,5-a]pyrazine-2,8-diamine], for which the IC50 on Syk was in the range of 3 to 50 µM. On to `Cc1cc(C)cc(Nc2nc3c(-c4ccccc4)nccn3n2)c1` [Example C7, (3,5-Dimethyl-phenyl)-(8-phenyl-[1,2,4]triazolo[1,5-a]pyrazin-2-yl)-amine], for which the IC50 at Syk was 0.3 to 3 µM.

As usually defined, the IC50 is the point on the concentration scale where inhibition reaches its midpoint.
